What all share (assay type): cell-based
The test system of experiment [1] is S. aureus. As to the kind of experiment: Screening of compounds for growth inhibition of S. aureus at 16 μg/mL (OD600). To be noted: compound at 16 μg/mL, 24 hours, compared to DMSO control. As to the method:
Library compounds and analogs of F6 were dissolved in DMSO at 10 mg/mL. S. aureus was cultured in Mueller Hinton Broth to early exponential phase at which point culture aliquots were incubated with compounds at 16 μg/mL or DMSO in duplicates. The culture was continued at 37° C. for 24 hours. Aliquots (100 μL) of the cultures were dispensed into clear 96 well microtiter plates and OD600 was recorded. Percent normalized OD600 was obtained by using the equation [formula] wherein for a given compound, X is the OD600 of culture with the compound, Xo is that of media only and XT is the OD600 of the DMSO control.

Experiment [2] relates to MRSA ATCC 33592. Put plainly: MIC, broth microdilution. To be noted: Staphylococcus aureus; MRSA ATCC 33592; read-out: MIC. The protocol:
(§1) Bacteria were cultured in cation-adjusted Mueller Hinton Broth (for strains in Tables 1 and 4) or Brain Heart Infusion broth (for Enterococcus faecium) or Tryptic Soy Broth (all other bacteria) in a 96-well plate at 37° C. for at least 20 hours. The MIC was classified as the lowest concentration where no visual growth of bacteria was observed. The minimum bactericidal concentration (MBC) was tested by spotting 4 μL from wells with no growth onto Tryptic Soy Agar (TSA) plates. Plates were incubated at 37° C. for at least 18 hours before recording the MBC.

For experiment [3], the system named is VRE. As to the kind of experiment: MIC (Table 5, strain not given). The following applies: Enterococcus; VRE (Table 5). The protocol: as §1
Experiment [4] relates to S. aureus. As to the kind of experiment: MIC (Table 5, strain not given). To be noted: Staphylococcus aureus; S. aureus (Table 5). As to the method:
as §1

The subject of experiment [5] is E. faecalis. As to the kind of experiment: MIC (Table 5, strain not given). The following applies: Enterococcus faecalis; E. faecalis (Table 5). The protocol:
as §1

Experiment [6] has as its system S. aureus ATCC 25923. Put plainly: MIC, broth microdilution. To be noted: Staphylococcus aureus, ATCC25923; S. aureus ATCC 25923; read-out: MIC. The protocol: as §1

Values after ≈ are worked out from the molar mass of the structure shown. Where only a bound is given, the exact number is not on record here.

With `CC1CC(C)CN(S(=O)(=O)c2ccc(C(=O)Nc3nnc(-c4cccs4)[nH]3)cc2)C1` (stereo not shown) [Compound F6-6, 4-((3,5-Dimethylpiperidin-1-yl)sulfonyl)-N-(5-(thiophen-2-yl)-4H-1,2,4-triazol-3-yl)benzamide], the “inhibition of growth of S. aureus” value in experiment [1] is reported as “activity was lost”.
Turning to `C[C@@H]1C[C@H](C)CN(S(=O)(=O)c2ccc(C(=O)Nc3nnc(-c4cccc(F)c4)o3)cc2)C1` [HSGN-111, 4-(((3S,5R)-3,5-dimethylpiperidin-1-yl)sulfonyl)-N-(5-(3-fluorophenyl)-1,3,4-oxadiazol-2-yl)benzamide], the MIC in experiment [2] is 0.5 µg/mL (≈ 1.09 µM); in experiment [3], 2 µg/mL (≈ 4.36 µM); in experiment [4] it was 2 µg/mL (≈ 4.36 µM); in experiment [5], 2 µg/mL (≈ 4.36 µM).
On to `CCOC(=O)c1nnc(NC(=O)c2ccc(S(=O)(=O)N3CC(C)CC(C)C3)cc2)o1` (stereo not shown) [Compound F6-3, Ethyl 5-(4-((3,5-dimethylpiperidin-1-yl)sulfonyl)benzamido)-1,3,4-oxadiazole-2-carboxylate], for which, in experiment [1], the “inhibition of growth of S. aureus” value is “inactive”.
As to `O=C1CN(S(=O)(=O)c2ccc(C(=O)Nc3nnc(-c4ccc(C(F)(F)F)cc4)o3)cc2)CCN1` [HSGN-162, 4-((3-oxopiperazin-1-yl)sulfonyl)-N-(5-(4-(trifluoromethyl)phenyl)-1,3,4-oxadiazol-2-yl)benzamide], the minimum inhibitory concentration (MIC) in experiment [2] and in experiment [4] was greater than 64 µg/mL each time.
Take `C[C@@H]1C[C@H](C)CN(S(=O)(=O)c2ccc(C(=O)Nc3nnc(-c4cccc(C(=N)NO)c4)o3)cc2)C1` [HSGN-151, 4-(((3S,5R)-3,5-dimethylpiperidin-1-yl)sulfonyl)-N-(5-(3-(N-hydroxycarbamimidoyl)phenyl)-1,3,4-oxadiazol-2-yl)benzamide]: the minimal inhibitory concentration (MIC) in experiment [2] and in experiment [4] was greater than 64 µg/mL each time.
For `Cc1nc(C)c(-c2nnc(NC(=O)c3ccc(S(=O)(=O)N4C[C@H](C)C[C@H](C)C4)cc3)o2)s1` [HSGN-123, 4-(((3S,5R)-3,5-dimethylpiperidin-1-yl)sulfonyl)-N-(5-(2,4-dimethylthiazol-5-yl)-1,3,4-oxadiazol-2-yl)benzamide], the MIC was determined as 8 µg/mL (≈ 16.8 µM) in experiment [2], 64 µg/mL (≈ 135 µM) in experiment [3], 16 µg/mL (≈ 33.6 µM) in experiment [4] and 32 µg/mL (≈ 67.3 µM) in experiment [5].
For `CC1CC(C)CN(S(=O)(=O)c2ccc(-c3nnc(-c4cccs4)o3)cc2)C1` (stereo not shown) [Compound F6-4, 2-(4-((3,5-Dimethylpiperidin-1-yl)sulfonyl)phenyl)-5-(thiophen-2-yl)-1,3,4-oxadiazole], the “inhibition of growth of S. aureus” value in experiment [1] is reported as “not active”.
Take `CCCCOc1ccc(-c2nnc(NC(=O)c3ccc(S(=O)(=O)N4C[C@H](C)C[C@H](C)C4)cc3)o2)cc1` [HSGN-191, N-(5-(4-butoxyphenyl)-1,3,4-oxadiazol-2-yl)-4-(((3S,5R)-3,5-dimethylpiperidin-1-yl)sulfonyl)benzamide]: the MIC in experiment [2] and in experiment [4] was 16 µg/mL (≈ 31.2 µM) in each case.
With `CN(CC1CCCO1)S(=O)(=O)c1ccc(C(=O)Nc2nnc(-c3ccccc3)o2)cc1` (stereo not shown) [Compound G9], the “inhibition of growth of S. aureus” value in experiment [1] was “only slightly inhibited growth”.
As for `C[C@@H]1C[C@H](C)CN(S(=O)(=O)c2ccc(C(=O)Nc3ccc4[nH]c(=O)oc4c3)cc2)C1` [HSGN-158, 4-(((3S,5R)-3,5-dimethylpiperidin-1-yl)sulfonyl)-N-(2-oxo-2,3-dihydrobenzo[d]oxazol-6-yl)benzamide], the MIC in experiment [2] and in experiment [4] was greater than 64 µg/mL throughout.
For `CC1CC(C)CN(S(=O)(=O)c2ccc(C(=O)Nc3nnc(-c4cccs4)s3)cc2)C1` (stereo not shown) [Compound F6-7, 4-((3,5-Dimethylpiperidin-1-yl)sulfonyl)-N-(5-(thiophen-2-yl)-1,3,4-thiadiazol-2-yl)benzamide], the “inhibition of growth of S. aureus” value in experiment [1] is “activity was lost”.
For the compound `CC1CC(C)CN(S(=O)(=O)c2ccc(C(=O)Nc3nnc(C4CCCO4)s3)cc2)C1` (stereo not shown) [Compound F6-2, 4-((3,5-Dimethylpiperidin-1-yl)sulfonyl)-N-(5-(tetrahydrofuran-2-yl)-1,3,4-thiadiazol-2-yl)benzamide], the “inhibition of growth of S. aureus” value in experiment [1] is “inactive”.
Take `C[C@@H]1C[C@H](C)CN(S(=O)(=O)c2cccc(C(=O)Nc3nnc(-c4ccc(C(F)(F)F)cc4)o3)c2)C1` [HSGN-176, 3-(((3S,5R)-3,5-dimethylpiperidin-1-yl)sulfonyl)-N-(5-(4-(trifluoromethyl)phenyl)-1,3,4-oxadiazol-2-yl)benzamide]: the MIC in experiment [2] and in experiment [4] was 8 µg/mL (≈ 15.7 µM) in each case.
With `COc1cccc(OC)c1C(=O)N[C@@H]1C(=O)N2[C@@H]1SC(C)(C)[C@@H]2C(=O)O` [Methicillin, reference compound], the MIC in experiment [6] is 2 µg/mL (≈ 5.26 µM); in experiment [2] it was greater than 128 µg/mL.
As to `Cc1cc(C(=O)Nc2nnc(-c3ccc(C(F)(F)F)cc3)o2)ccc1S(=O)(=O)N1C[C@H](C)C[C@H](C)C1` [HSGN-189, 4-(((3S,5R)-3,5-dimethylpiperidin-1-yl)sulfonyl)-3-methyl-N-(5-(4-(trifluoromethyl)phenyl)-1,3,4-oxadiazol-2-yl)benzamide], the MIC in experiment [2] and in experiment [4] was 0.25 µg/mL (≈ 0.478 µM) each time.
For `C[C@@H]1C[C@H](C)CN(S(=O)(=O)c2ccc(C(=O)Nc3nnc(-c4ccccc4)o3)cc2)C1` [HSGN-180, 4-(((3S,5R)-3,5-dimethylpiperidin-1-yl)sulfonyl)-N-(5-phenyl-1,3,4-oxadiazol-2-yl)benzamide], the MIC in experiment [2] and in experiment [4] was 4 µg/mL (≈ 9.08 µM) in each case.
Take `Cc1cc(C(=O)Nc2nnc(-c3ccc(C(F)(F)F)cc3)o2)ccc1S(=O)(=O)N1CCC(C)CC1` [HSGN-195, 3-methyl-4-((4-methylpiperidin-1-yl)sulfonyl)-N-(5-(4-(trifluoromethyl)phenyl)-1,3,4-oxadiazol-2-yl)benzamide]: the MIC in experiment [2] was determined as 0.5 µg/mL (≈ 0.983 µM); in experiment [4], 1 µg/mL (≈ 1.97 µM).
Regarding `C[C@@H]1C[C@H](C)CN(S(=O)(=O)c2ccc(C(=O)Nc3nnc(-c4cccc(C(F)(F)F)c4)o3)cc2)C1` [HSGN-122, 4-(((3S,5R)-3,5-dimethylpiperidin-1-yl)sulfonyl)-N-(5-(3-(trifluoromethyl)phenyl)-1,3,4-oxadiazol-2-yl)benzamide], the MIC in experiment [2] was found to be 1 µg/mL (≈ 1.97 µM); in experiment [3], 8 µg/mL (≈ 15.7 µM); in experiment [4], 2 µg/mL (≈ 3.93 µM); in experiment [5], 4 µg/mL (≈ 7.87 µM).
Taken in the same sequence, the figures for `COc1cccc(-c2nnc(NC(=O)c3ccc(S(=O)(=O)N4C[C@H](C)C[C@H](C)C4)cc3)o2)c1` [HSGN-112, 4-(((3S,5R)-3,5-dimethylpiperidin-1-yl)sulfonyl)-N-(5-(3-methoxyphenyl)-1,3,4-oxadiazol-2-yl)benzamide] were 2 µg/mL (≈ 4.25 µM), 4 µg/mL (≈ 8.5 µM), 4 µg/mL (≈ 8.5 µM) and 8 µg/mL (≈ 17 µM).
As to `O=C(Nc1nnc(-c2ccco2)o1)c1ccc(S(=O)(=O)N2CCOCC2)cc1` [Compound F9], the “inhibition of growth of S. aureus” value in experiment [1] is “not active”.
`Cc1ccc(-c2nnc(NC(=O)c3ccc(S(=O)(=O)N4C[C@H](C)C[C@H](C)C4)cc3)o2)cc1` [HSGN-181, 4-(((3S,5R)-3,5-dimethylpiperidin-1-yl)sulfonyl)-N-(5-(p-tolyl)-1,3,4-oxadiazol-2-yl)benzamide]: the values for the minimum inhibitory concentration (MIC) in experiment [2] and in experiment [4] were 8 µg/mL (≈ 17.6 µM) and 16 µg/mL (≈ 35.2 µM), respectively.
As to `O=C(Nc1nnc(-c2cccs2)o1)c1ccc(S(=O)(=O)Cc2ccccc2)cc1` [HSGN-104, 4-(benzylsulfonyl)-N-(5-(thiophen-2-yl)-1,3,4-oxadiazol-2-yl)benzamide], the MIC in experiment [2] was 32 µg/mL (≈ 75.2 µM); in experiment [3], greater than 128 µg/mL; in experiment [4] it was 64 µg/mL (≈ 150 µM); in experiment [5] it was 64 µg/mL (≈ 150 µM).
`C[C@@H]1C[C@H](C)CN(S(=O)(=O)c2ccc(C(=O)Nc3nnc(-c4cccc(Cl)c4)o3)cc2)C1` [HSGN-110, N-(5-(3-chlorophenyl)-1,3,4-oxadiazol-2-yl)-4-(((3S,5R)-3,5-dimethylpiperidin-1-yl)sulfonyl)benzamide]: the MIC was determined as 0.5 µg/mL (≈ 1.05 µM) in experiment [2], 2 µg/mL (≈ 4.21 µM) in experiment [3], 1 µg/mL (≈ 2.11 µM) in experiment [4] and 1 µg/mL (≈ 2.11 µM) in experiment [5].
Take `Cc1ccc(C(=O)Nc2nnc(-c3ccc(C(F)(F)F)cc3)o2)cc1S(=O)(=O)N1C[C@H](C)C[C@H](C)C1` [HSGN-177, 3-(((3S,5R)-3,5-dimethylpiperidin-1-yl)sulfonyl)-4-methyl-N-(5-(4-(trifluoromethyl)phenyl)-1,3,4-oxadiazol-2-yl)benzamide]: the results for the MIC in experiment [2] and in experiment [4] were 1 µg/mL (≈ 1.91 µM) and 2 µg/mL (≈ 3.83 µM), respectively.
On to `C[C@@H]1C[C@H](C)CN(S(=O)(=O)c2ccc(C(=O)Nc3nnc(-c4ccc(F)cc4F)o3)cc2)C1` [HSGN-182, N-(5-(2,4-difluorophenyl)-1,3,4-oxadiazol-2-yl)-4-(((3S,5R)-3,5-dimethylpiperidin-1-yl)sulfonyl)benzamide], for which the MIC in experiment [2] and in experiment [4] was 8 µg/mL (≈ 16.8 µM) throughout.
